We go through 26 compounds from ChEMBL document CHEMBL1153455, “N-(4-(4-(2,3-dichloro- or 2-methoxyphenyl)piperazin-1-yl)butyl)heterobiarylcarboxamides with functionalized linking chains as high affinity and enantioselective D3 receptor antagonists” (J Med Chem, 2009).

The structures appear in SMILES notation.

Assay [1] addresses T1, D(3) dopamine receptor (Homo sapiens, UniProt P35462). The experiment in a line: biochemical.
Assay [2] addresses D(1A) dopamine receptor (Homo sapiens, UniProt P21728). Kind of assay: Displacement of [3H]SCH23390 from D1 receptor. (In general: In a radioligand displacement assay an active substance lowers the binding of a labelled ligand.)
For assay [3], the species on record is Homo sapiens. The experiment in a line: Selectivity of IC50 for human D2 like receptor to IC50 for human D3 receptor.
Assay [4] concerns the target T2, D(4) dopamine receptor (Homo sapiens, UniProt P21917).
T2 sequence (P21917 whole entry): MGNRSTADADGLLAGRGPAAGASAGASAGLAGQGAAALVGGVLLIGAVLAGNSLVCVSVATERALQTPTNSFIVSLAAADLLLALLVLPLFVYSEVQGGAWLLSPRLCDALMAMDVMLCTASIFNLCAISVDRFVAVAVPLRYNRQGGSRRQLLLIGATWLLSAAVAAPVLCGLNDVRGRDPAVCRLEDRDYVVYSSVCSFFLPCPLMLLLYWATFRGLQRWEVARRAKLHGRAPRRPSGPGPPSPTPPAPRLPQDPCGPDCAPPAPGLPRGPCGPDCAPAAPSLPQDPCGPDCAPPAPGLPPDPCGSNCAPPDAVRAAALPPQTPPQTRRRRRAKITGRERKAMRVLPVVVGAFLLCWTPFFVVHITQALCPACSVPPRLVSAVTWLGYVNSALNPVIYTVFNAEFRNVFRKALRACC
The experiment in a line: biochemical.

A short description of assay [5]: cells. Particulars: Homo sapiens, HEK293.
Description: Antagonist activity at human D2 like receptor expressed in HEK293 cells assessed as inhibition of quinpirole-stimulated mitogenesis
Assay [6] addresses T1, D(3) dopamine receptor.
Assay [7] concerns the target T3, 5-hydroxytryptamine receptor 1A (Homo sapiens, UniProt P08908).
T3 sequence (P08908 whole entry): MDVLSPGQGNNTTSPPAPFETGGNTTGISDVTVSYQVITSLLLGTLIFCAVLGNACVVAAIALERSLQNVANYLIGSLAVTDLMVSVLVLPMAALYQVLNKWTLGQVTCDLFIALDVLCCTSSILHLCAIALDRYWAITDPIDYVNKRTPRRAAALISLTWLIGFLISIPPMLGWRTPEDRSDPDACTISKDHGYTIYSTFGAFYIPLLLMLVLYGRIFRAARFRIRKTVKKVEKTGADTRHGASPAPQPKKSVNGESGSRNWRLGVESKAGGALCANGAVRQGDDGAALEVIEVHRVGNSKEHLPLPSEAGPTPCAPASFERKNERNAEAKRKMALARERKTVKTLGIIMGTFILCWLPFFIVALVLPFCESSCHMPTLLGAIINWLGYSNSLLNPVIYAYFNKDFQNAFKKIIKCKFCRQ
Kind of assay: Displacement of [3H]8-OH-DPAT from 5HT1A receptor.

Assay [8] addresses T1, D(3) dopamine receptor. The experiment in a line: Agonist activity at human D3 receptor expressed in HEK293 cells assessed as stimulation of mitogenesis relative to quinpirole. The class given is functional, cell-based. Also on record: concentration or dose not given beside the values.
Assay [9] in a line: Antagonist activity at human D3 receptor expressed in HEK293 cells assessed as inhibition of quinpirole-stimulated mitogenesis.

T1 sequence (P35462 whole entry): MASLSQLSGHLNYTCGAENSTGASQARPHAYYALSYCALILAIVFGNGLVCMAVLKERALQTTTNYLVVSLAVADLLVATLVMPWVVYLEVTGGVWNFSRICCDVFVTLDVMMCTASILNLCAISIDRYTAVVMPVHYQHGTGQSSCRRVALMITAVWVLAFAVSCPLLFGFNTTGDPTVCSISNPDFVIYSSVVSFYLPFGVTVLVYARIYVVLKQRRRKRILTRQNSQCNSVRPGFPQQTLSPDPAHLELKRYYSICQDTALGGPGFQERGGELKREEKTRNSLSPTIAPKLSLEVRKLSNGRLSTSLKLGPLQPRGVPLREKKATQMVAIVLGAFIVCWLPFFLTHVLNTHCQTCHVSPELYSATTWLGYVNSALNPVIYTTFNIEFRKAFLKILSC
Chain of D(1A) dopamine receptor (P21728 whole entry): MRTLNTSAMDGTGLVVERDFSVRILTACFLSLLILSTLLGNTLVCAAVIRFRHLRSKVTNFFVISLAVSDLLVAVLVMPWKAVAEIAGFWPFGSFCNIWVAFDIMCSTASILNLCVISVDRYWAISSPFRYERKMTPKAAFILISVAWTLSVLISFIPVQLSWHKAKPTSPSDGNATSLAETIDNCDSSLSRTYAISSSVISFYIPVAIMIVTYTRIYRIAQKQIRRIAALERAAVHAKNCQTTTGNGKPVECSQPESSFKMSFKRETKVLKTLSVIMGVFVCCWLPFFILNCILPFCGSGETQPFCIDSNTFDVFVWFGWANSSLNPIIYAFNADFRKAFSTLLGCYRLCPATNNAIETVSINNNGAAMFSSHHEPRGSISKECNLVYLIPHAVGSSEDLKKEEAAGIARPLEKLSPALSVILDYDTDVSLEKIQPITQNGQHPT

For orientation: Ki means the equilibrium dissociation constant of an inhibitor or competing ligand from its target. What is called IC50 is the point on the concentration scale where inhibition reaches its midpoint. As for `COc1ccccc1N1CCN(CC(O)CCNC(=O)c2cc3cc(F)ccc3[nH]2)CC1` (stereo unspecified), the figures for the inhibition constant Ki in assay [1], in [2] and in [4] were 2.41 nM, 5060 nM and 967 nM, respectively. In assay [3], this compound displayed a fold change (FC) of 100. This compound also returned an IC50 in assay [5] of 270 nM.

Consider `COc1ccccc1N1CCN(CCCCNC(=O)c2cc3ccccc3[nH]2)CC1`, for which the values for the Ki in assay [4] and in assay [6] were 476 nM and 0.32 nM, respectively.

In the case of `COc1ccccc1N1CCN(CC(O)CCNC(=O)c2cc3cc(I)ccc3[nH]2)CC1` (stereo unspecified), the inhibition constant Ki was 3.6 nM in assay [1], over 10000 nM in assay [2] and 455 nM in assay [4].

As to `O=C(NC/C=C/CN1CCN(c2cccc(Cl)c2Cl)CC1)c1cc2ccccc2[nH]1`, the Ki in assay [1] came to 0.44 nM; in assay [2] it was 910 nM; in assay [4], 640 nM; in assay [7], 193 nM. The compound further registered a concentration for half-maximal inhibition (IC50) in assay [5] of 175 nM.

On to `COc1ccc2[nH]c(C(=O)NCCC(O)CN3CCN(c4ccccc4OC)CC3)cc2c1` (stereo unspecified), for which the figures for the Ki in [1], in [2] and in [4] were 2.32 nM, over 10000 nM and 1530 nM, respectively. In assay [3], the fold change (FC) was over 100.

Take `O=C(NCCC(O)CN1CCN(c2cccc(Cl)c2Cl)CC1)c1cc2cc(I)ccc2[nH]1` (stereo unspecified): in assay [8], the Activity came out at 26%. For the same compound, the inhibition constant (Ki) in [1] was 5.21 nM; in assay [2] it was over 10000 nM; in assay [4], over 10000 nM.

For the compound `COc1ccccc1N1CCN(CC(O)CCNC(=O)c2cc3ccccc3o2)CC1` (stereo unspecified), the Ki is 7.51 nM in [1], over 10000 nM in assay [2] and 2140 nM in assay [4].

Consider `O=C(NCC(O)CCN1CCN(c2cccc(Cl)c2Cl)CC1)c1cc2ccccc2[nH]1` (stereo unspecified), for which the Ki in assay [2] was over 10000 nM; in [4] it was 1040 nM; in assay [7], 58.3 nM. This compound also yielded an IC50 in [5] of 340 nM.

As to `O=C(NCCC(O)CN1CCN(c2cccc(Cl)c2Cl)CC1)c1cc2cc(F)ccc2[nH]1` (stereo unspecified), the results for the inhibitory constant (Ki) in assay [2] and in assay [4] were over 10000 nM and over 5000 nM, respectively.

In the case of `O=C(NCCC(O)CN1CCN(c2cccc(Cl)c2Cl)CC1)c1cc2ccccc2o1` (stereo unspecified), the Activity in assay [8] was 22.6%. For the same compound, the Ki was 6.11 nM in assay [1], over 10000 nM in [2] and over 10000 nM in assay [4].

Take `O=C(NCC[C@@H](O)CN1CCN(c2cccc(Cl)c2Cl)CC1)c1cc2ccccc2[nH]1`: the Ki in assay [2] was over 10000 nM.

On to `O=C(NC/C=C/CN1CCN(c2cccc(Cl)c2Cl)CC1)c1cc2ccccc2s1`, for which the IC50 worked out at 9.62 nM in assay [9] and 254 nM in [5]. Besides, the Ki in [2] was determined as 1730 nM; in [7] it was 388 nM.

For `O=C(NCCC(O)CN1CCN(c2cccc(Cl)c2Cl)CC1)c1cc2cc(I)ccc2o1` (stereo unspecified), the Activity in [8] is 23.6%. Also, the Ki in assay [1] is 7.71 nM; in assay [2] it was over 10000 nM; in assay [4], over 10000 nM.

Consider `O=C(NCC[C@H](O)CN1CCN(c2cccc(Cl)c2Cl)CC1)c1cc2ccccc2[nH]1`, for which the Activity in assay [8] worked out at 42.2%. The compound also displayed a Ki in assay [2] of over 10000 nM.

In the case of `COc1ccccc1N1CCN(CC(O)CCNC(=O)c2cc3ccccc3s2)CC1` (stereo unspecified), the inhibition constant (Ki) in assay [2] amounted to 6650 nM. In addition, the IC50 in assay [5] worked out at 146 nM.

In the case of `O=C(NC/C=C/CN1CCN(c2cccc(Cl)c2Cl)CC1)c1cc2ccccc2o1`, the values for the Ki in assay [2] and in assay [7] were 1460 nM and 58.8 nM, respectively. The compound also came in with a half-maximal inhibitory concentration (IC50) in [5] of 111 nM.

As to `COc1ccccc1N1CCN(C/C=C/CNC(=O)c2cc3ccccc3o2)CC1`, the inhibition constant (Ki) in [1] is 11.3 nM; in assay [2], 990 nM.

In [3], `COc1ccccc1N1CCN(CCCCNC(=O)c2cc3ccccc3s2)CC1` gave a fold change (FC) of 100. Besides, half-maximal inhibition in assay [5] (IC50) was put at 21.4 nM.

Take `COc1ccccc1N1CCN(C/C=C/CNC(=O)c2cc3ccccc3s2)CC1`: the inhibition constant Ki was 2.61 nM in assay [1] and 678 nM in assay [2].

With `COc1ccccc1N1CCN(CC(O)CCNC(=O)c2cc3cc(I)ccc3o2)CC1` (stereo unspecified), the values for the Ki in [1], in [2] and in assay [4] were 7.5 nM, 3690 nM and 1290 nM, respectively. This compound also had an IC50 in [5] of 405 nM.

On to `O=C(NCCCCN1CCN(c2cccc(Cl)c2Cl)CC1)c1cc2cc(I)ccc2o1`, for which the Ki in [2] was determined as 2920 nM; in [4], 1720 nM. The compound further came in with a half-inhibitory concentration (IC50) in assay [5] of 1030 nM.

For `COc1ccccc1N1CCN(CCC(O)CNC(=O)c2cc3ccccc3[nH]2)CC1` (stereo unspecified), the Ki in assay [1] turned out to be 0.51 nM; in assay [4] it was 176 nM.

As for `COc1ccc2[nH]c(C(=O)NCCC(O)CN3CCN(c4cccc(Cl)c4Cl)CC3)cc2c1` (stereo unspecified), the Activity in [8] was determined as 34.9%. The inhibition constant (Ki) is 1.2 nM in assay [1], over 10000 nM in assay [2] and over 10000 nM in assay [4]. The compound further registered a fold change (FC) in [3] of over 100.

In assay [2], `CCCOc1ccccc1N1CCN(CC(O)CCNC(=O)c2cc3ccccc3[nH]2)CC1` (stereo unspecified) gave a Ki of 4960 nM. For the same compound, half-maximal inhibition in [5] (IC50) required 162 nM.

`COc1ccccc1N1CCN(CCCCNC(=O)c2cc3cc(I)ccc3o2)CC1`: the Ki in [1] was 0.72 nM; in assay [2], 900 nM; in assay [4], 335 nM. In [5], this compound showed a concentration for half-maximal inhibition (IC50) of 170 nM.

Regarding `COc1ccccc1N1CCN(CC(O)CCNC(=O)c2cc3ccccc3[nH]2)CC1` (stereo unspecified), the inhibitory constant (Ki) was over 10000 nM in assay [2] and 132 nM in assay [7]. Besides, in [5], inhibition was half-maximal at 427 nM (IC50).
